Measurements reported in patent US20020184551A1, “Process for the preparation of deactivated rice bran lipase” (COUNCIL OF SCIENTIFIC & INDUSTRIAL RESEARCH, priority 2001, published 2002).
Read-outs that look alike come from different tables or passages of the source.

Tests used:
[1] = system: rice bran lipase
Excerpt: The enzyme solution containing different concentrations of ligands was passed through a sephadex G25 column which was previously equilibrated with the elution buffer. The protein eluting immediately after the void volume was collected and assayed for the activity.
The enzyme was also checked for reversibility of its original activity after removal of ligands by gel filtrations on Sephadex G-25 column.

[2] = system: rice bran lipase; conditions: lipase 2 mg/ml, substrate 5% w/v, CaCl2 0.1 M
Method: To approximately 2 mg of rice bran lipase in 0.05 M sodium phosphate buffer, pH 7.4 is added different concentrations of ligands ranging from 1:10 to 1:1500 mole to mole ratio of protein to ligand and incubated for 1 h at30° C. in Innova™ 4000 incubator shaker at 150 rpm. The reaction mixture was checked for enzyme activity by pH-stat method using Mettler Toledo DL12 titrator using 5% solution of triacetin or tributyrin as substrate. Respective blank solutions where the enzyme was inactivated by the addition of distilled alcohol was also used. The activity was expressed in terms of control activity as microequivalents of alkali consumed per mg of protein per hour.
To approximately 2 mg of rice bran lipase in 0.05 m sodium phosphate buffer, pH 7.4 is added different concentrations of ligand ranging from 1:10 to 1:1500 on a mole to mole ratio and incubated fpr 1 hr at 30° C. in Innova™ 4000 incubator shaker at 150 rpm. The reaction mixture was checked for enzyme activity by pH start method using mettler Toledo DL 12 titrator using 5% solution of triacetin or tributyrin as substrate. Respective blank solutions where the enzyme was inactivated by the addition of distilled alcohol was also used. The activity was expressed in terms of control activity as micro equivalent of alkali consumed per mg of protein per hour.

## benzene boronic acid [ligand]
[1]; 1:10 ratio, Sephadex G-25 column chromatography
  reversibility of enzyme activity after removal of ligand: able to recover the initial activity
[1]; 1:1500 mole to mole ratio, gel filtration on Sephadex G-25 column
  reversibility of enzyme activity after removal of ligand: recovered almost its original activity
[2]; 1:10 mole to mole ratio of protein to ligand
  loss of initial activity of rice bran lipase: 35%
[2]; 1:1500 mole/mole protein to ligand
  loss of initial activity of rice bran lipase: ~77%
